Reference: PMC11571207, “Stereorandomized Oncocins with Preserved Ribosome Binding and Antibacterial Activity” (Journal of Medicinal Chemistry, 2024)
In brackets after ≈: the same amount, converted by molar mass. Non-standard residues stand in square brackets, D forms with d. Residues, ends and D or L forms follow the SMILES beside them. No end group written: not given here.

Legend:
human red blood cells = test: Hemolysis assay, minimum hemolytic concentration; conditions: for Haemolysis on hRBC, MHC: 2.5% human red blood cells (final) in 10 mM phosphate, 150 mM NaCl, pH 7.4, 25 °C, 4 h, visual inspection; for MHC human red blood cells: supplement CSV
P. aeruginosa PAO1 = test: microbe, parasite or virus in culture; conditions: for MIC P. aeruginosa, 12.5% MHB / MIC P. aeruginosa, Full MHB: P. aeruginosa PAO1, 16–20 h at 37 °C; for MIC P. aeruginosa, 12.5% MHB: 12.5% Müller–Hinton medium; for MIC P. aeruginosa, Full MHB: full Müller–Hinton medium; for MIC P. aeruginosa PAO1: supplement CSV
From the text: (§1) We tested antibacterial effects against the Gram-negative bacteria Escherichia coli, Klebsiella pneumoniae, Pseudomonas aeruginosa, and Acinetobacter baumannii and the Gram-positive methicillin-resistant Staphylococcus aureus (MRSA).
(§2) Bacterial growth assay (Figure S1), transmission electron microscopy (Figure S6), serum stability assay (Figure S7), circular dichroism spectral recording (Figures S8 and S9), antimicrobial and hemolysis activity assays (MIC and MHC), and vesicle leakage assay were carried out as described in earlier publications.[43],[44]
(§3) Minimum inhibitory concentration assay
(§4) Antimicrobial activity was assayed against P. aeruginosa PAO1, K. pneumoniae NCTC418, E. coli W3110, A. baumannii ATCC 19606, methicillin-resistant S. aureus COL (MRSA), and for selected peptides on P. aeruginosa PA14 and the polymyxin-B-resistant derivative PA14 2P4, as well as the clinical isolates ZEM-1A and ZEM9A, K. pneumoniae OXA-48, S. aureus Newman, Enterobacter cloacae and Burkholderia cenocepacia. The minimal inhibitory concentration (MIC) was determined by using broth microdilution method. A colo ny of bacteria was picked and grown in Luria-Bertani (LB) medium overnight at 37°C. For E. coli BW25113 sbmA::kan the medium was supplemented with 25 mg/L of kanamycin. The next day, the culture was then regrown in LB medium to log phase (OD600 = 0.6 to 0.8), which lasted approximately 4 h, and diluted to an OD600 of 0.022 in the desired medium. Stock solutions of 1 mg/mL of the samples were prepared in sterilized milliQ water and diluted to the beginning concentration of 64 μg/mL in 300 μL Mueller Hinton (MH)-medium. The diluted samples were added to first well of 96-well microtiter plate (TPP, untreated, Faust Laborbedarf, AG, Schaffhausen) and diluted serially by ½. Finally, 4 μL of the bacterial suspension was inoculated into the sample solutions (150 μL/well) with a final inoculation of about 5∙10^5 CFU/mL. The plates were then incubated at 37°C for 15-18h. For each assay, sterility (broth only) and growth control (broth with bacterial inoculum, without antibiotics) were checked with two columns in the plate. The next day, 15 μL of 3-(4,5-dimethylthiazol-2-yl)-2,5-diphenyltetrazolium bromide (MTT) was added to each well of the plate, such a way that MIC was defined as the lowest concentration of the peptide that inhibited visible growth of the tested

E. coli W3110 = test: microbe, parasite or virus in culture; conditions: for MIC E. coli, 12.5% MHB / MIC E. coli, Full MHB: E. coli W3110, 16–20 h at 37 °C, broth microdilution; for MIC E. coli, 12.5% MHB: 12.5% Müller–Hinton medium; for MIC E. coli, Full MHB: full Müller–Hinton medium; for MIC E. coli W3110: supplement CSV
From the text: as §1, §2, §3, §4

A. baumannii ATCC19606 = test: microbe, parasite or virus in culture; conditions: for MIC A. baumannii, 12.5% MHB / MIC A. baumannii, Full MHB: A. baumannii ATCC19606, 16–20 h at 37 °C; for MIC A. baumannii, 12.5% MHB: 12.5% Müller–Hinton medium; for MIC A. baumannii, Full MHB: full Müller–Hinton medium; for MIC A. baumannii ATCC19606: supplement CSV
From the text: as §1, §2, §3, §4

S. aureus COL (MRSA) = test: microbe, parasite or virus in culture; conditions: for MIC S. aureus, 12.5% MHB / MIC S. aureus, Full MHB: S. aureus COL (MRSA), 16–20 h at 37 °C; for MIC S. aureus, 12.5% MHB: 12.5% Müller–Hinton medium; for MIC S. aureus, Full MHB: full Müller–Hinton medium; for MIC S. aureus COL (MRSA): supplement CSV
From the text: as §1, §2, §3, §4

K. pneumoniae NCTC 418 = test: microbe, parasite or virus in culture; conditions: for MIC K. pneumoniae, 12.5% MHB / MIC K. pneumoniae, Full MHB: K. pneumoniae NCTC 418, 16–20 h at 37 °C; for MIC K. pneumoniae, 12.5% MHB: 12.5% Müller–Hinton medium; for MIC K. pneumoniae, Full MHB: full Müller–Hinton medium; for MIC K. pneumoniae NCTC418: supplement CSV
From the text: as §1, §2, §3, §4

Molecule | Haemolysis on hRBC, MHC (human red blood cells) | MHC human red blood cells (human red blood cells) | MIC P. aeruginosa, 12.5% MHB (P. aeruginosa PAO1) | MIC P. aeruginosa, Full MHB (P. aeruginosa PAO1) | MIC P. aeruginosa PAO1 (P. aeruginosa PAO1; 12.5% MH pH 7.4) | MIC P. aeruginosa PAO1 (P. aeruginosa PAO1; full MH pH 7.4) | MIC E. coli, 12.5% MHB (E. coli W3110) | MIC E. coli, Full MHB (E. coli W3110) | MIC E. coli W3110 (E. coli W3110; 12.5% MH pH 7.4) | MIC E. coli W3110 (E. coli W3110; full MH pH 7.4) | MIC A. baumannii, 12.5% MHB (A. baumannii ATCC19606) | MIC A. baumannii, Full MHB (A. baumannii ATCC19606) | MIC A. baumannii ATCC19606 (A. baumannii ATCC19606; 12.5% MH pH 7.4) | MIC A. baumannii ATCC19606 (A. baumannii ATCC19606; full MH pH 7.4) | MIC S. aureus, 12.5% MHB (S. aureus COL (MRSA)) | MIC S. aureus, Full MHB (S. aureus COL (MRSA)) | MIC S. aureus COL (MRSA) (S. aureus COL (MRSA); 12.5% MH pH 7.4) | MIC S. aureus COL (MRSA) (S. aureus COL (MRSA); full MH pH 7.4) | MIC K. pneumoniae, 12.5% MHB (K. pneumoniae NCTC 418) | MIC K. pneumoniae, Full MHB (K. pneumoniae NCTC 418) | other results
CC[C@H](C)[C@H](NC(=O)[C@H](CCCNC(=N)N)NC(=O)[C@H](CCCNC(=N)N)NC(=O)[C@@H]1CCCN1C(=O)[C@@H]1CCCN1C(=O)[C@H](CCCNC(=N)N)NC(=O)[C@@H]1CCCN1C(=O)[C@H](CCCNC(=N)N)NC(=O)[C@@H]1CCCN1C(=O)[C@H](CC(C)C)NC(=O)[C@@H](Cc1ccc(O)cc1)NC(=O)[C@@H]1CCCN1C(=O)[C@@H]1CCCN1C(=O)[C@H](CCCCN)NC(=O)[C@H](CC(=O)O)NC(=O)[C@@H](N)C(C)C)C(=O)N[C@@H](Cc1ccc(O)cc1)C(=O)N[C@@H](CC(N)=O)C(=O)N[C@@H](CCCNC(=N)N)C(N)=O [DY6-Onc] (H-VDKPP[dY]LPRPRPPRRIYNR-NH2) | >1000 µg/mL | >1000 µg/mL | 16 µg/mL (≈ 6.69 µM) | > 64 µg/mL | 16 µg/mL (≈ 6.69 µM) | >64 µg/mL | 4 µg/mL (≈ 1.67 µM) | 16 µg/mL (≈ 6.69 µM) | 4 µg/mL (≈ 1.67 µM) | 16 µg/mL (≈ 6.69 µM) | 16 µg/mL (≈ 6.69 µM) | > 64 µg/mL | 16 µg/mL (≈ 6.69 µM) | >64 µg/mL | >64 / 64 μg/mL | >64 / 64 μg/mL | 64 µg/mL (≈ 26.8 µM) | >64 µg/mL | 4 µg/mL (≈ 1.67 µM) | 8 µg/mL (≈ 3.35 µM) | MIC K. pneumoniae NCTC418 (K. pneumoniae NCTC 418; 12.5% MH pH 7.4): 4 µg/mL (≈ 1.67 µM); MIC K. pneumoniae NCTC418 (K. pneumoniae NCTC 418; full MH pH 7.4): 8 µg/mL (≈ 3.35 µM)
CC[C@H](C)[C@H](NC(=O)[C@H](CCCNC(=N)N)NC(=O)[C@H](CCCNC(=N)N)NC(=O)[C@@H]1CCCN1C(=O)[C@@H]1CCCN1C(=O)[C@H](CCCNC(=N)N)NC(=O)[C@@H]1CCCN1C(=O)[C@H](CCCNC(=N)N)NC(=O)[C@H]1CCCN1C(=O)[C@H](CC(C)C)NC(=O)[C@H](Cc1ccc(O)cc1)NC(=O)[C@@H]1CCCN1C(=O)[C@@H]1CCCN1C(=O)[C@H](CCCCN)NC(=O)[C@H](CC(=O)O)NC(=O)[C@@H](N)C(C)C)C(=O)N[C@@H](Cc1ccc(O)cc1)C(=O)N[C@@H](CC(N)=O)C(=O)N[C@@H](CCCNC(=N)N)C(N)=O [DP8-Onc] (H-VDKPPYL[dP]RPRPPRRIYNR-NH2) | >1000 µg/mL | >1000 µg/mL | 16 µg/mL (≈ 6.69 µM) | > 64 µg/mL | 16 µg/mL (≈ 6.69 µM) | >64 µg/mL | 4 µg/mL (≈ 1.67 µM) | 32 µg/mL (≈ 13.4 µM) | 4 µg/mL (≈ 1.67 µM) | 32 µg/mL (≈ 13.4 µM) | 16 µg/mL (≈ 6.69 µM) | > 64 µg/mL | 16 µg/mL (≈ 6.69 µM) | >64 µg/mL | >64 / 64 μg/mL | >64 / 64 μg/mL | 64 µg/mL (≈ 26.8 µM) | >64 µg/mL | 16 µg/mL (≈ 6.69 µM) | > 64 µg/mL | MIC K. pneumoniae NCTC418 (K. pneumoniae NCTC 418; 12.5% MH pH 7.4): 16 µg/mL (≈ 6.69 µM); MIC K. pneumoniae NCTC418 (K. pneumoniae NCTC 418; full MH pH 7.4): >64 µg/mL
VDKPPYLPRPRPPRRIYNR [sr6Cterm-Onc] (VDKPPYLPRPRPPRRIYNR-NH2; also: residues 14-19 stereorandomized (1:1 L/D mixture)) | >1000 µg/mL | >1000 µg/mL | 4 µg/mL | 64 µg/mL | 4 µg/mL | 64 µg/mL | 1 µg/mL | 8 µg/mL | 1 µg/mL | 8 µg/mL | 4 µg/mL | 32 µg/mL | 4 µg/mL | 32 µg/mL | > 16 µg/mL | > 64 µg/mL | >16 µg/mL | >64 µg/mL | 1 µg/mL | 4 µg/mL | MIC K. pneumoniae NCTC418 (K. pneumoniae NCTC 418; 12.5% MH pH 7.4): 1 µg/mL; MIC K. pneumoniae NCTC418 (K. pneumoniae NCTC 418; full MH pH 7.4): 4 µg/mL
VDKPPYLPRPRPPRRIYNR [sr3N5Cterm-Onc] (VDKPPYLPRPRPPRRIYNR-NH2; also: residues 1-3 and 15-19 stereorandomized (1:1 L/D mixture)) | >1000 µg/mL | >1000 µg/mL | 8 µg/mL | > 64 µg/mL | 8 µg/mL | >64 µg/mL | 1 µg/mL | 8 µg/mL | 1 µg/mL | 8 µg/mL | 4 µg/mL | 32 µg/mL | 4 µg/mL | 32 µg/mL | >64 / 64 μg/mL | >64 / 64 μg/mL | 64 µg/mL | >64 µg/mL | 1 µg/mL | 16 µg/mL | MIC K. pneumoniae NCTC418 (K. pneumoniae NCTC 418; 12.5% MH pH 7.4): 1 µg/mL; MIC K. pneumoniae NCTC418 (K. pneumoniae NCTC 418; full MH pH 7.4): 16 µg/mL
